Patent US8309536B2, “Implant improving local bone formation” (priority 2005, dated 2012)
Several values for one entry are separate records, joined by “and”; a condition that tells them apart may be missing. Identical values can stand only once.

Experiments:
bone resorption = details: cited from earlier work; for potency at inhibiting bone resorption relative to second generation bisphosphonates (in words): third generation bisphosphonates which contain a tertiary nitrogen
alveolar bone resorption = details: local application following periodontal surgery in rats; cited from earlier work
[1] = test system: soft tissue formation at implant site; details: single application via a sponge to an implant site, rat; cited from earlier work
distraction osteogenesis = details: cited from earlier work
[2] = ZA elution from porous tantalum implants in saline, assayed by UV spectrophotometry; type: physicochemical; details: for percent of the ZA released: HA-coated implant dosed with 0.05 mg ZA
Source text: Assay of ZA Elution. Assays of ZA in solution were achieved using UV spectrophotometry. Bisphosphonates on their own lack a detectable chromophore, making them difficult to assay by simple conventional analytical methods. However, the metal chelating properties of bisphosphonates are well known. When bisphosphonates complex with certain metal ions, a chromophore with suitable. UV activity for spectrophotometric analysis is created (Ostovic D, Stelmach C, Hulshizer B. Pharmaceutical Research. 10:470-472, 1993). The method for assaying ZA in aqueous-based solutions is based on the formation of a ZA complex with iron (III) ions (Kuljanin J, Jankovic I, Nedeljkovic J, Prstojevic D, Marinkovic V. Journal of Pharmaceutical and Biomedical Analysis. 28:1215-1220, 2002). Of the three components in the prescription drug Zometa™ (ZA, mannitol, and sodium citrate), only ZA forms a complex with iron (III) ions. A standard solution of iron (III) chloride in perchloric acid is added to known concentrations of Zometa™ and the absorbance is measured at 290 nm to create a calibration curve. A highly acidic medium is needed to prevent the hydrolysis of the iron (III) ions. Aliquots of the soak solution from the Zometa™-coated implants can be analyzed by adding the standard iron (III) chloride solution to the soak solution and measuring the absorbance at 290 nm. By measuring the absorbance, the concentration of the sample can be calculated and thus the mass of the drug released from the implant for a given time period can be determined.
Four porous tantalum implants with and without HA coating were deposited with 0.05 mg of ZA as described. For each implant group, elution characteristics were ascertained by immersing each implant in a test tube containing 5 ml of 0.9% saline at […]. At mutiple test intervals (1 min, 3 min, 5 min, 10 min, 15 min, 30 min, 1 hr, 6 hrs, 12 hrs, 1 day, 3 days, 7 days, 14 days, 21 days, 42 days, 84 days, and 98 days), the implant was removed from the test tube, the saline was thoroughly mixed, and aliquots were removed for ZA assays using UV spectrophotometry. After each time interval for each implant, the implant was placed in a test tube with fresh replacement of 5 ml of saline. This elution model avoided build up of boundary layers and more closely resembled a dynamic system. The 84-day assay time corresponded to the 12 week length of the in vivo implant studies. Assays ceased once the total amount of ZA was released.

[3] = test system: canine ulnar intramedullary implant model; assay: Canine ulnar intramedullary implant model, HA coated porous tantalum implants dosed with ZA (local delivery), 12 weeks, quantitative histology; type: in vivo, dog
Source text: In Vivo Studies. The previously described canine ulnar intramedullary implant model was utilized (study approved by institutional review board) (Bobyn J D, Tanzer M, Harvey EJ, Krygier JJ, Little DG. J Bone Joint Surg (Br), In press, 2005). The surgical procedure involved anesthetizing the dog with a general anesthesia and under sterile conditions exposing the proximal ulna. A two-centimeter incision was made over the olecranon process and the triceps tendon was split by sharp dissection down to bone. Under fluoroscopic guidance, a 5.0 mm drill was oriented along the long axis of the ulna and in line with the intramedullary canal. A 5.5 cm long hole was drilled under fluoroscopy to ensure the proper orientation of the drill hole and to prevent cortical penetration. The porous implant was then tapped down the intramedullary canal of the ulna with a punch and mallet. The implant was slightly countersunk to avoid postoperative irritation of the overlying triceps tendon. The wound was irrigated and closed in a standard fashion. The procedure was repeated on the contralateral side. Positioning of the implants inevitably varied somewhat in terms of depth of insertion within the canal and spatial orientation within the canal. […] Each dog received either two control HA coated implants without ZA or two HA coated implants dosed with 0.05 mg ZA. Five control dogs and four with ZA-dosed implants were studied at 12 weeks. This protocol was utilized instead of one with a control and a ZA-dosed implant in each animal because it avoided the possibility of systemic absorption of ZA from one side and influence of a control implant on the other side.
Histological examination. After sacrifice, the ulnae were harvested, stripped of soft tissue, radiographed and processed for undecalcified hard-section histology (FIG. 6). This involved dehydration in ascending solutions of ethanol, defatting in ether and acetone, and embedding in methylmethacrylate. Each implant was cut transversely into 6 or 7 sections at 7-8 mm intervals. The sections were radiographed and polished, sputter coated with gold-palladium, and imaged with backscattered scanning electron microscopy. For each section, computerized image analysis based on grey level discrimination was used to identify bone and implant and to generate quantitative information on the extent of bone ingrowth, defined as the percentage of the available porosity that was filled with new bone. Also tabulated in each section was the number and size of the individual islands of bone within the implant pores. In sections cut through the ulnar diaphysis, where delineation of the endosteal cortex was clearly evident, the total area of peri-implant bone contained within the intramedullary canal was also tabulated. In these calculations the implant area (and bone within) was not included. For each section, the peri-implant bone was expressed as a percentage of the total peri-implant area within the intramedullary canal (not including the implant).
Statistical analysis. The quantitative histological data were statistically analyzed using multiple two-level hierarchical models. At the first level of the model, the set of results from the limbs of each dog was assumed to follow a normal distribution with dog-specific means and a global variance parameter. At the second level of the model, the means from each dog in each group (control, ZA-dosed) from the first level followed a second normal distribution, with the mean representing the overall mean for the treatment or control groups and the variance representing the variability within the group. A similar statistical model was also run where the results for each dog were allowed to vary with the distance (section level) along the ulna. […] The mean values and differences between means for control and ZA-dosed implants were estimated with 95% confidence intervals (CI).

[4] = test system: canine ulnar intramedullary implant model; assay: Canine ulnar intramedullary implant model, single intravenous dose of ZA, porous tantalum rods implanted for 6 weeks; type: in vivo
Description: The hypothesis that bisphosphonates have a positive effect on net bone growth, particularly into porous implants, was first confirmed by conducting a canine ulnar intramedullary implant model in which porous tantalum rods were implanted for 6 weeks. (Bobyn J D, Tanzer M, Harvey EJ, Krygier JJ, Little DG. J Bone Joint Surg (Br), 2005) Immediately after surgery, seven test animals with 14 ulnar implants were administered a single intravenous dose of 0.1 mg/kg ZA (Novartis Pharma A G, Basel, Switzerland). Because of the systemic exposure of test animals to ZA it was necessary to utilize external control data from a prior experiment (Tanzer M, Kantor S, Bobyn J D. J Arthrop 19:195-199, 2002) for comparisons of bone ingrowth. The mean extent of bone ingrowth was 6.6% for the control implants and 12.2% for the ZA-treated implants, a relative difference of 85% that was statistically significant.

[5] = test system: canine ulnar intramedullary implant model; assay: Canine ulnar intramedullary implant model, HA coated porous tantalum implants dosed with ZA (local delivery), 12 weeks, quantitative histology; type: in vivo, dog; details: total ZA doses of 0.2 mg and 0.4 mg, relative to 0.05 mg
[6] = test system: murine (MC3T3) osteoblastic cells; details: Peter et al 2004; cited from earlier work
[7] = test system: human (MG-63) osteoblastic cells; details: Peter et al 2004; cited from earlier work
regenerate bone / callus = details: Smith et al 2003; net bone accumulation due to increased retention of callus; cited from earlier work
[8] = test system: knee prostheses migration; details: early postoperative oral regimen, radiostereometry; cited from earlier work
[9] = individual ZA dogs 1-4, 0.05 mg ZA, 12 weeks

In the case of `O=P(O)(O)C(O)(Cc1cccnc1)P(=O)(O)O` [risendronate], the “potency at inhibiting bone resorption relative to second generation bisphosphonates (in words)” value (bone resorption) is listed as “even more potent”.
In the case of `NCCCC(O)(P(=O)(O)O)P(=O)(O)O` [alendronate], the “effect on alveolar bone resorption” value (alveolar bone resorption) is listed as “reduce alveolar bone resorption” and the “effect on soft tissue forming from resorptive remodeling due to repetitive implant motion” value [1] is listed as “reduces the amount of soft tissue”.
In the case of `CCCCCN(C)CCC(O)(P(=O)(O)O)P(=O)(O)O` [ibandronate], the “potency at inhibiting bone resorption relative to second generation bisphosphonates (in words)” value (bone resorption) is given as “even more potent”.
For `NCCC(O)(P(=O)(O)O)P(=O)(O)O` [pamidronate], the “effect on disuse osteopenia and regenerate bone” value (distraction osteogenesis; single postoperative intravenous dose of pamidronate (3 mg/kg)) is given as “decreased the disuse osteopenia normally associated with lengthening and increased the amount and density of the regenerate bone”.
For `O=P(O)(O)C(O)(Cn1ccnc1)P(=O)(O)O` [ZA, zoledronic acid], the “percent of the ZA released” value ([2]; 0.9% saline, after soaking for 6 weeks) was ~95%, the “percent of the ZA released” value ([2]; 0.9% saline, within 1 hour) was “about 65%” and the “release of zoledronic acid in saline (in words, FIG. 7)” value ([2]; implants without HA coating compared to those with HA coating, 0.05 mg) was “rapid and complete release”. The “time within which all of the ZA was released” value ([2]; non-HA coated porous tantalum implant dosed with 0.05 mg ZA, 0.9% saline) was ≤ 1 h, the “more net bone growth into ZA-dosed implants compared with controls, relative” value ([3]; 0.05 mg ZA, 12 weeks) was 58% and the “peri-implant bone around ZA-dosed implants relative to controls” value ([3]; 0.05 mg ZA, 12 weeks) was 2.3 times. The “peri-implant bone on contact radiographs, ZA-dosed vs control implants (in words)” value ([3]; 0.05 mg ZA, 12 weeks) was “almost always more dense and/or abundant”, the “relative difference in the size of the bone islands, ZA-dosed vs control” value ([3]; 0.05 mg ZA, 12 weeks) was 71% and the “Bone Island Size, overall Mean (95% CI)” value ([3]; 0.05 mg ZA, 12 weeks, 54 sections, 8 implants) was 0.023 (0.016 to 0.031) mm^2. The “bone islands larger in the ZA-dosed implants than in controls, difference” value ([3]; 0.05 mg ZA, 12 weeks, 95% CI 0.001 to 0.017) was 0.009 mm^2, the “difference of the means of peri-implant bone filling, ZA-dosed vs control” value ([3]; 0.05 mg ZA, 12 weeks, 95% CI 3.3 to 33.7) was 18.4% and the “difference in mean extent of bone ingrowth, ZA-dosed vs control” value ([3]; 0.05 mg ZA, 12 weeks, 95% CI 3.5 to 11.1) was 7.3%. For the same molecule, the “histologic evidence of cellular toxicity” value ([3]; 0.05 mg dose) was “without any histologic evidence of cellular toxicity”, the “Peri-implant bone relative to intramedullary canal size, overall Mean (95% CI)” value ([3]; HA coated implants dosed with 0.05 mg ZA, 12 weeks, 24 diaphyseal sections, 8 implants) was 32.2 (21.7 to 43.0) % and the “Mean extent of bone ingrowth, overall Mean (95% CI)” value ([3]; HA coated implants dosed with 0.05 mg ZA, 12 weeks, 54 sections, 8 implants) was 19.8 (16.9 to 22.6) %. For the same molecule, the “# Bone Islands, by dog” value [3, 9] was 109 and 155 and 206 and 131, the “Bone Island Size, by dog” value [3, 9] was 0.033 mm^2 and 0.016 mm^2 (2×) and 0.028 mm^2 and the “Mean extent of bone ingrowth, by dog” value ([3]; individual ZA dogs 1-4, HA coated implants dosed with 0.05 mg ZA, 12 weeks) was 16.0% and 20.3% (2×) and 22.6%. For the same molecule, the “Peri-implant bone relative to intramedullary canal size, by dog” value ([3]; individual ZA dogs 1-4, HA coated implants dosed with 0.05 mg ZA, 12 weeks, diaphyseal sections) was 19.8% and 38.5% and 30.4% and 40.0%, the “bone formation on increasing the dosage of ZA” value ([3]; total ZA doses of 0.2 mg and 0.4 mg, relative to 0.05 mg) was “more bone formation around and within the implant” and the “complications or systemic illness related to the ZA administration” value ([3]; two HA coated implants dosed with 0.05 mg ZA per dog, 12 weeks) was “No dogs had any complications or systemic illness”. The “average bone island size larger in the ZA-treated group” value ([4]; 0.1 mg/kg ZA intravenous) was 69%, the “relative difference in bone ingrowth, ZA-treated vs external control implants” value ([4]; 0.1 mg/kg ZA intravenous, statistically significant) was 85% and the “mean extent of bone ingrowth” value ([4]; single intravenous dose of 0.1 mg/kg ZA, 14 ulnar implants, own earlier published study) was 12.2%. The “kind of the additional bone formed at higher doses” value [5] was “woven bone”, the “potency relative to alendronate” value (bone resorption; Green 2001, Li and Davis 2003) was 250 times and the “potency relative to pamidronate” value (bone resorption; Green 2001, Li and Davis 2003) was 100 times. For the same molecule, the “potency at inhibiting bone resorption relative to second generation bisphosphonates (in words)” value (bone resorption) was “even more potent”, the “concentration below which ZA can be considered safe for cellular activity” value [6] was “below 10 μM” and the “concentration below which ZA can be considered safe for cellular activity” value [7] was “below 10 μM”. The “effect on osteopenia and regenerate bone” value (distraction osteogenesis; one or two doses of ZA) was “abolished osteopenia and increased regenerate volume, mineralization and strength” and the bone formation rate (regenerate bone / callus) was “reduced”.
In the case of `O=P(O)(O)C(Cl)(Cl)P(=O)(O)O` [clodronate], the “effect on migration of knee prostheses” value [8] is given as “reduced migration of knee prostheses”.
